Test results published in article PMC4308083, “Cytokine-Induced Loss of Glucocorticoid Function: Effect of Kinase Inhibitors, Long-Acting β2-Adrenoceptor Agonist and Glucocorticoid Receptor Ligands” (PLoS ONE, 2015).
Where two headings read alike, the source gives them in different places.

What was measured:
[1] = molecular target: T1, glucocorticoid receptor (NR3C1) (Homo sapiens, UniProt P04150); assay: 2×GRE luciferase reporter activation by NR3C1 ligands in BEAS-2B cells; type: cell-based; details: for EC50: pEC50 (M)
T1 construct: BEAS-2B cells stably transfected with a glucocorticoid response element (2×GRE) driven luciferase reporter plasmid; endogenous in cells; host or cells: BEAS-2B human bronchial epithelial cells stably carrying a 2×GRE luciferase reporter
T1 sequence (P04150 1-777): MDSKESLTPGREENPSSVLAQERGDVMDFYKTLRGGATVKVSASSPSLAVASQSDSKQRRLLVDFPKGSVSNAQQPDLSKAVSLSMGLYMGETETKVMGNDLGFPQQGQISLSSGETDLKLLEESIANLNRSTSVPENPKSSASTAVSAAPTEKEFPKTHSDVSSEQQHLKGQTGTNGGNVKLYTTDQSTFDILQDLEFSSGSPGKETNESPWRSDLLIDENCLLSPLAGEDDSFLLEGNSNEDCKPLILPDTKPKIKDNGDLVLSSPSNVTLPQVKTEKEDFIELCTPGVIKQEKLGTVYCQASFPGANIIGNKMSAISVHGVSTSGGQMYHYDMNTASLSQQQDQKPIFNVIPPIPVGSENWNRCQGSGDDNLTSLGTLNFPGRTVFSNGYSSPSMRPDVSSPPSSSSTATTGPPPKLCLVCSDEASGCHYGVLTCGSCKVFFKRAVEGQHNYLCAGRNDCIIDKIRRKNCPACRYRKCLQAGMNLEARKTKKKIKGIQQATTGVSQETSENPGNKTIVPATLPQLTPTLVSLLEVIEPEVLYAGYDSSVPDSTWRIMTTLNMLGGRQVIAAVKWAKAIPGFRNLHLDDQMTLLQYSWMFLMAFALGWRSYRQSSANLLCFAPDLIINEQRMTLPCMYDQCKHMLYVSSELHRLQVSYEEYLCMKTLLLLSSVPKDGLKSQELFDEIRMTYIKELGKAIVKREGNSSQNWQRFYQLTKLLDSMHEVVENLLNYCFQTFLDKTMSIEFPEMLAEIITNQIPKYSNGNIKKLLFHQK
Protocol: (§1) BEAS-2B cells stably transfected with a glucocorticoid response element (2×GRE) driven luciferase reporter plasmid, pGL3.neo.TATA.neo [23], were cultured in medium containing 0.25 mg/ml G-418 (Promega, Madison, WI). Cells were grown to confluence in 24 or 48 well plates and incubated overnight in serum-free media prior to experiments. Cells were harvested in reporter lysis buffer and luciferase assays performed according to the manufacturer’s instructions (Firefly Luciferase Assay Kit; Biotium; Hayward, CA) using a 20/20n luminometer (Promega).
Cells were harvested 6 h after NR3C1 ligand addition for luciferase assay.
(§2) Cells were harvested after 6 h for luciferase assays. Data (n = 7), expressed as fold activation, are plotted as means ± S.E. Lines of best fit were added in panel B. Statistical analyses were performed by ANOVA with a Dunnett’s test comparing each NR3C1 ligand alone versus in the presence of TNF and/or Form. *, P<0.05; **, P<0.01; ***, P<0.001.

[2] = tested on: CDKN1C, DUSP1, RGS2 and TSC22D3 mRNA in BEAS-2B cells; assay: RT-PCR of glucocorticoid-inducible gene expression in BEAS-2B cells
Protocol: Cells were harvested 6 h after Dex addition.
BEAS-2B cells were pre-treated for 30 min with either 10 or 3 μM of the JNK MAPK inhibitor JNK inhibitor VIII (JNK) or 10 μM of the IKK2 inhibitor PS-1145 (PS), before addition of 10 ng/ml tumor necrosis factor-α (TNF).
Cells were harvested 6 h after NR3C1 ligand addition.

2×GRE reporter = assay: Modulation of dexamethasone/NR3C1 ligand-induced 2×GRE reporter activation (kinase inhibitors, TNF, formoterol) in BEAS-2B cells; type: cell-based, human; details: for Effect on dexamethasone-induced 2×GRE reporter activation (concentration-response): 30 min pre-treatment, 6 h (Fig. 3B, Fig. 4), JNK inhibitor VIII only at 30 μM, PKC inhibitors above 1 μM; for Effect on dexamethasone-induced 2×GRE reporter activation: 10 μM inhibitor 30 min pre-treatment, 6 h (Fig. 3A)
Protocol: as §1
Data (n = 7), expressed as a percentage of Dex activation, are plotted as means ± S.E. BEAS-2B 2×GRE cells were pre-treated for 30 min with the indicated concentrations of B. PS or JNK or C. JNK in the presence or absence of 10 μM PS, before addition of 10 ng/ml TNF. After 1 h, 10 μM Dex was added and cells harvested 6 h later for luciferase assay. […] D+T indicates Dex plus TNF treatment.
Data (n = 3–4), expressed as fold activation, are plotted as means ± S.E. D+T indicates Dex plus TNF treatment.
as §2

AKT1 phosphorylation = assay: Western blot of AKT1 phosphorylation in BEAS-2B cells; type: cell-based; details: Homo sapiens, 30 min pre-treatment, TNF 10 ng/ml 30 min, western blot (S2 Fig.), read-out: EC50 for block of AKT1 phosphorylation
Description: Cells were lysed in 1× Laemmli buffer supplemented with phosphatase inhibitors (Sigma-Aldrich) and 1× complete protease inhibitor cocktail (Roche; Indianapolis, IN), size fractionated on 12% acrylamide gels and subsequently electro-transferred onto Hybond enhanced chemiluminescent membranes (GE Healthcare; Waukesha, WI). Membranes were blocked in 5% milk in tris-buffered saline containing 1% tween 20 and probed with antibodies against phospho-jun proto-oncogene (pJUN; pc-Jun) (9164; Cell Signaling Technology; Danvers, MA), nuclear factor of kappa light polypeptide gene enhancer in B-cells inhibitor, alpha (NFKBIA; IκBα) (sc-371; Santa Cruz Biotechnology; Dallas, TX), phospho-NFKBIA (9246; Cell Signaling Technology), phospho-AKT1 (9271S; Cell Signaling Technology), AKT (9272S; Cell Signaling Technology) and GAPDH (4699–9555(ST); AbD Serotec; Raleigh, NC). After washing, membranes were incubated with horseradish peroxidase-conjugated anti-rabbit (111–035–003; Jackson ImmunoResearch Laboratories Inc; West Grove, PA) or anti-mouse immunoglobulin (115–035–003; Jackson ImmunoResearch Laboratories Inc). Detection was by enhanced chemiluminescence (Pierce ECL Western Blotting Substrate; Thermo Fisher Scientific Inc.; Rockford, IL) and visualization by autoradiography.
Cells were harvested after 30 min for western blotting and probed for phospho v-akt murine thymoma viral oncogene homolog 1 (pAKT1), AKT1 and glyceraldehyde 3-phosphate dehydrogenase (GAPDH). (PDF) Click here for additional data file.

[3] = tested on: TSC22D3 mRNA in primary ASM cells; assay: RT-PCR of dexamethasone-inducible gene expression in primary human airway smooth muscle (ASM) cells; type: cell-based; details: TNF 10 ng/ml or IL1B 1 ng/ml, 1 μM dexamethasone, 6 h
[4] = tested on: TSC22D3 mRNA in primary HBE cells; assay: RT-PCR of dexamethasone-inducible gene expression in primary human bronchial epithelial (HBE) cells; type: cell-based; details: TNF 10 ng/ml (at 1 h) or IL1B 1 ng/ml (at 18 h), 1 μM dexamethasone
[5] = 100 nM ligand, 10 nM formoterol, 6 h (Fig. 8)
[6] = BEAS-2B 2×GRE reporter, TNF 10 ng/ml pre-treatment 1 h, 6 h, percent of 1 μM dexamethasone
[7] = BEAS-2B 2×GRE reporter, no TNF, 6 h, percent of 1 μM dexamethasone
[8] = BEAS-2B 2×GRE reporter, TNF 10 ng/ml pre-treatment 1 h, 6 h
[9] = BEAS-2B 2×GRE reporter, no TNF, 6 h

Q: With `CCCC1O[C@@H]2C[C@H]3[C@@H]4CCC5=CC(=O)C=C[C@]5(C)[C@H]4[C@@H](O)C[C@]3(C)[C@]2(C(=O)CO)O1` (stereo partly drawn) [Budesonide] as the compound, how does the “E max (% Dex), Naive” value [1] read?
A: The value was 109.9 ± 2.6 % Dex.

Q: Which results are given for `C[C@]12C=CC(=O)C=C1CC[C@@H]1[C@@H]2[C@@H](O)C[C@@]2(C)[C@H]1C[C@H]1O[C@@H](C3CCCCC3)O[C@]12C(=O)CO` [Des-ciclesonide]?
A: RGS2 mRNA expression in the presence of formoterol relative to dexamethasone [2, 5]: significantly lower; TSC22D3 mRNA fold induction ([2]; 6 h, 1 μM dexamethasone, 100 nM other ligands (Fig. 8, n = 5)): 71 fold; Agonist type on 2×GRE reporter relative to dexamethasone ([1]; BEAS-2B 2×GRE reporter): partial agonists; E max (% Dex), +TNF [1, 6]: 43.1 ± 1.0 % Dex; E max (% Dex), Naive [1, 7]: 76.0 ± 2.0 % Dex; EC50 ([1]; +TNF, BEAS-2B 2×GRE reporter, TNF 10 ng/ml pre-treatment 1 h, 6 h): 3.16e-09 M; EC50 ([1]; Naive, BEAS-2B 2×GRE reporter, no TNF, 6 h): 2.51e-09 M

Q: How did the “E max (% Dex), +TNF” value [1, 6] turn out when `C[C@@H]1C[C@H]2[C@@H]3CCC4=CC(=O)C=C[C@]4(C)[C@@]3(F)[C@@H](O)C[C@]2(C)[C@@]1(O)C(=O)CO` [Dexamethasone] was run?
A: The value was 58.7 ± 3.2 % Dex.

Q: And the “E max (% Dex), Naive” value [1, 7]?
A: Its value is 100 ± 3.2 % Dex.

Q: How did the “E max (% Dex), +TNF” value [1, 6] turn out when `CCC(=O)O[C@]1(C(=O)SCF)[C@H](C)C[C@H]2[C@@H]3C[C@H](F)C4=CC(=O)C=C[C@]4(C)[C@@]3(F)[C@@H](O)C[C@@]21C` [Fluticasone Propionate] was run?
A: Its value is 51.0 ± 2.8 % Dex.

Q: And the “E max (% Dex), Naive” value [1, 7]?
A: The value was 111.2 ± 4.3 % Dex.

Q: For `CN(C)CCCn1cc(C2=C(c3c[nH]c4ccccc34)C(=O)NC2=O)c2ccccc21` [GF109203X], which “Effect on dexamethasone-induced 2×GRE reporter activation (concentration-response)” value (“Effect … (concentration-response)” below) (2×GRE reporter) is on record?
A: The value was “enhanced”.

Q: Which results are given for `C[C@@H]1C[C@H]2[C@@H]3C[C@H](F)C4=CC(=O)C=C[C@]4(C)[C@@]3(F)[C@@H](O)C[C@]2(C)[C@@]1(OC(=O)C1C(C)(C)C1(C)C)C(=O)OCC#N` [GW870086X]?
A: RGS2 mRNA expression in the presence of formoterol relative to dexamethasone [2, 5]: significantly lower; TSC22D3 mRNA expression in the presence of formoterol, or TNF plus formoterol, relative to dexamethasone [2, 5]: significantly lower; Agonist type on 2×GRE reporter relative to dexamethasone ([1]; BEAS-2B 2×GRE reporter): partial agonists; pEC50 (M), +TNF [1, 8]: 8.0 ± 0.2 * M; E max (% Dex), +TNF [1, 6]: 29.8 ± 1.4 % Dex; pEC50 (M), Naive [1, 9]: 8.3 ± 0.1 M; E max (% Dex), Naive [1, 7]: 50.1 ± 1.1 % Dex

Q: `Cn1c2ccccc2c2c3c(c4c5ccccc5n(CCC#N)c4c21)CNC3=O` [Gö6976] was tested. Which “Effect … (concentration-response)” value (2×GRE reporter) did it give?
A: Its value is “reduced”.

Q: With `O=c1cc(N2CCOCC2)oc2c(-c3ccccc3)cccc12` [LY294002, 2-(4-morpholinyl)-8-phenyl-4H-1-benzopyran-4-one] as the compound, how does the “Effect … (concentration-response)” value (2×GRE reporter) read?
A: The value was “less effect”.

Q: And the EC50 (AKT1 phosphorylation)?
A: Its EC50 is ~900 nM.

Q: Which “Effect on dexamethasone-induced 2×GRE reporter activation” value (2×GRE reporter) does the source give for `COc1cccc(-c2cc(=O)c3ccccc3o2)c1N` [PD098059] here?
A: Its value is “significantly reduced”.

Q: With `Oc1cccc(-c2nc(N3CCOCC3)c3oc4ncccc4c3n2)c1` [PI103] as the compound, how does the “Effect … (concentration-response)” value (2×GRE reporter) read?
A: Its value is “concentration-dependently reduced”.

Q: What about the EC50 (AKT1 phosphorylation) of the same compound?
A: The EC50 was ~70 nM.

Q: Which results are given for `C[C@@H]1C[C@H]2[C@@H]3CCC4=CC(=O)C=C[C@]4(C)[C@@]3(F)[C@@H](O)C[C@]2(C)[C@H]1C(=O)CC#N` [RU24858]?
A: Agonist type on 2×GRE reporter relative to dexamethasone ([1]; BEAS-2B 2×GRE reporter): partial agonists; pEC50 (M), +TNF [1, 8]: 7.3 ± 0.0 * M; E max (% Dex), +TNF [1, 6]: 46.0 ± 0.8 % Dex; pEC50 (M), Naive [1, 9]: 7.4 ± 0.0 M; E max (% Dex), Naive [1, 7]: 74.9 ± 1.1 % Dex

Q: With `Cn1cc(C2=C(c3cn(CCCSC(=N)N)c4ccccc34)C(=O)NC2=O)c2ccccc21` [Ro 31–8220] as the compound, how does the “Effect … (concentration-response)” value (2×GRE reporter) read?
A: Its value is “reduced”.

Q: Which “Effect on dexamethasone-induced 2×GRE reporter activation” value (2×GRE reporter) does the source give for `C[S+]([O-])c1ccc(-c2nc(-c3ccncc3)c(-c3ccc(F)cc3)[nH]2)cc1` (stereo not drawn) [SB203580] here?
A: Its value is “no effect”.

Q: How did the “Effect … (concentration-response)” value (2×GRE reporter) turn out when `COC[C@H]1OC(=O)c2coc3c2[C@@]1(C)C1=C(C3=O)[C@@H]2CCC(=O)[C@@]2(C)C[C@H]1OC(C)=O` [wortmannin] was run?
A: Its value is “concentration-dependently reduced”.

Q: What about the EC50 (AKT1 phosphorylation) of the same compound?
A: Its EC50 is ~20 nM.

Q: Which results are given for GSK9027?
A: Agonist type on 2×GRE reporter relative to dexamethasone ([1]; BEAS-2B 2×GRE reporter): partial agonists; pEC50 (M), +TNF [1, 8]: 7.0 ± 0.1 M; E max (% Dex), +TNF [1, 6]: 40.7 ± 0.9 % Dex; pEC50 (M), Naive [1, 9]: 7.1 ± 0.0 M; E max (% Dex), Naive [1, 7]: 77.2 ± 1.0 % Dex

Q: With “IL1B: pro-inflammatory cytokine interleukin-1β (R&D systems), used at 1 ng/ml” as the compound, how does the “Repression of dexamethasone-induced TSC22D3 expression” value [3] read?
A: Its value is 43%.

Q: And the “Maximal repression of dexamethasone-induced TSC22D3 expression” value [4]?
A: Its value is 62%.
